Source: PMC7927021 (Toxins, 2021)
“And” between values parts separate entries of the source, which are not always exact repeats. Identical values can stand only once.

Experiments:
Caco-2 cells [1] = assay type: cell-based, human
Caco-2 cells [2] = assay type: cell-based, human; remark: listed apart in the source
[3] = design: method as in PMID 21699062; details: established by JECFA in 2011; cited from earlier work

Row | SMILES | Concentration range in which viability was significantly/sharply reduced (Caco-2 cells [1]) [µM] | Concentration range of robust decrease in cell viability (Caco-2 cells [1]) [µM] | IC50 (Caco-2 cells [1]) | Number of KEGG pathways in which DEGs were enriched (Caco-2 cells [2]) | Number of differentially expressed genes (DEGs) (Caco-2 cells [2]) | PMTDI (Provisional Maximum Tolerable Daily Intake) [3] [μg/kg bw per day]
1 | CC(=O)O[C@@H]1C[C@]2(C)[C@@]3(CO)[C@H](O)C(=O)C(C)=C[C@H]3O[C@H]1[C@@]21CO1 [3-ADON, trichothec-9-en-8-one, 3-(acetyloxy)-12,13-epoxy-7,15-dihydroxy-, (3α,7α)] | 1 to 10 | 2 to 10 | 13.2 µM and 10.8 µM and 7.84 µM | 42 | 3132 | 
2 | CC(=O)OC[C@]12[C@H](O)C(=O)C(C)=C[C@H]1O[C@@H]1[C@H](O)C[C@@]2(C)[C@]12CO2 [15-ADON, trichothec-9-en-8-one, 15-(acetyloxy)-12,13-epoxy-3,7-dihydroxy-, (3α,7α)] | 0.2 to 10 | 0.5 to 10 |  | 28 | 2425 | 
3 | CC1=C[C@H]2O[C@@H]3[C@H](O)C[C@](C)([C@@]2(CO)[C@H](O)C1=O)[C@]31CO1 [DON, Deoxynivalenol] | 0.2 to 10 | 0.2 to 10 |  | 27 | 2656 | 1
